Holding throughout (format): biochemical
One test deals with CDK2/CCNE1 (Homo sapiens, UniProt P24941). The test can be described thus: CDK2 homogeneous time-resolved fluorescence (HTRF) kinase assay. As to conditions: CDK2/CCNE. Put shortly: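 IC50 derived from 11-point, half-log dilutions (usually top 10 μM) of compound, 1% DMSO. Kinase (3 nM CDK2/CCNE1) was preincubated with compound 20 min, then phosphorylated 50 nM ULight-4E-BP1 peptide at 1 mM ATP for 60 min, 23 °C. Europium-antibody TR-FRET read after EDTA stop.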
On the technique in general: Time-resolved FRET reads energy transfer from a long-lived donor to a nearby acceptor.

In the next test the target is CDK1/CCNB1 (Homo sapiens, UniProt P06493). As to the kind of experiment: CDK1 homogeneous time-resolved fluorescence (HTRF) kinase assay. The conditions noted are these: CDK1/CCNB. Put shortly: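 Kinase activity is measured as Lance signal (665 nm, or 665/615 nm ratio) from europium-labelled anti-phospho-Thr37/46 antibody binding ULight-4E-BP1 peptide. Reactions contain 0.5 nM enzyme, 1 mM ATP, 1% DMSO and run 60 min at 23 °C before EDTA quench.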

The target in another test is CDK4/CCND3 (Homo sapiens, UniProt P11802). As to the kind of experiment: CDK4 homogeneous time-resolved fluorescence (HTRF) kinase assay. As to conditions: CDK4/CCND. Summed up: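 HTRF kinase assay, CDK4/CCND3 1.5 nM, ATP 1 mM, ULight-4E-BP1 peptide 50 nM, 23 °C, 60 min reaction after 20 min preincubation. Eu-anti-pThr37/46 antibody detection. 11-pt half-log curves from 10 μM → IC50.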

A further test addresses CDK6/CCND1 (Homo sapiens, UniProt Q00534). The test can be described thus: CDK6 homogeneous time-resolved fluorescence (HTRF) kinase assay. As to conditions: CDK6/CCND. Put shortly:
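Recombinant CDK6/CCND1 (1 nM final) was preincubated with compound for 20 min at 23 °C in HEPES buffer with MgCl2, EGTA, DTT and Tween 20. Kinase reaction then ran 60 min at 23 °C with 1 mM ATP and 50 nM ULight-4E-BP1 (Thr37/46) peptide, and was stopped with EDTA.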

Where [1] appears, read: x = IC50 <25 nM, read-out: CDK2/CCNE IC50 (<25 nM).
Where [2] appears, read: x = IC50 >250 nM, read-out: CDK1/CCNB IC50 (>250 nM column).
[3] abbreviates: x = IC50 >250 nM, read-out: CDK4/CCND IC50 (>250 nM column).
[4] abbreviates: x = IC50 >250 nM, read-out: CDK6/CCND IC50 (>250 nM column).
[5] abbreviates: x = IC50 25-250 nM, read-out: CDK6/CCND IC50 (25-250 nM).
Where [6] appears, read: x = IC50 25-250 nM, read-out: CDK1/CCNB IC50 (25-250 nM).
Setting [7] is: x = IC50 25-250 nM, read-out: CDK4/CCND IC50 (25-250 nM).
The mark [8] stands for this setting: x = IC50 25-250 nM, read-out: CDK2/CCNE IC50 (25-250 nM).

Each structure is given as a SMILES string. Read-outs that look alike come from different tables or passages of the source.

Experimental findings from US20260325533A1, “CDK INHIBITOR COMPOUNDS” (ALEKSIA THERAPEUTICS, INC., priority 2023, published 2026) are described below.

Chain of CDK6/CCND1 (Q00534 whole entry): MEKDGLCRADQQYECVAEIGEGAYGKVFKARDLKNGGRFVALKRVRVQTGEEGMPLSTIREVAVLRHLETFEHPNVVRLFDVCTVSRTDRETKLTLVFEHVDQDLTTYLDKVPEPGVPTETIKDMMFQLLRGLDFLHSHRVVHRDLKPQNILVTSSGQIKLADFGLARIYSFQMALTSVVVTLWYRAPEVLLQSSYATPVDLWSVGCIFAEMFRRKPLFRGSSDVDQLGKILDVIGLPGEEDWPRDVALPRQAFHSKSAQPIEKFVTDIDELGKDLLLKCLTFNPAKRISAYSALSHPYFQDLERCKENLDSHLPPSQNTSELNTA
Chain of CDK6/CCND1 (P24385 whole entry partner): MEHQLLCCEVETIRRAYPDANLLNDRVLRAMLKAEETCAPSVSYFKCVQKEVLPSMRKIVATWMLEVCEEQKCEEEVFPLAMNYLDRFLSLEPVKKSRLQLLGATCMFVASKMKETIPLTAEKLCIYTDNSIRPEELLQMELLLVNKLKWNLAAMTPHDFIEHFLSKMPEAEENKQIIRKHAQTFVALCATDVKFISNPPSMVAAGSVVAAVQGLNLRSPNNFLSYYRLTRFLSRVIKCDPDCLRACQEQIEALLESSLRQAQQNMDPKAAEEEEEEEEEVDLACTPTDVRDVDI
Chain of CDK1/CCNB1 (P06493 whole entry): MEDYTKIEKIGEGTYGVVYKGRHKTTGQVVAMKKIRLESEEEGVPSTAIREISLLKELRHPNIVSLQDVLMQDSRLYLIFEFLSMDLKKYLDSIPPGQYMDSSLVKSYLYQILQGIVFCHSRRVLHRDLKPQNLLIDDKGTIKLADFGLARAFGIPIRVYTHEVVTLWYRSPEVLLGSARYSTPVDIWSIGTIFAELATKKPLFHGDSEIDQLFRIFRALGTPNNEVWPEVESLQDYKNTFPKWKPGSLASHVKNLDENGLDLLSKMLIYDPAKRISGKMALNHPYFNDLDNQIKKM
Chain of CDK1/CCNB1 (P14635 whole entry partner): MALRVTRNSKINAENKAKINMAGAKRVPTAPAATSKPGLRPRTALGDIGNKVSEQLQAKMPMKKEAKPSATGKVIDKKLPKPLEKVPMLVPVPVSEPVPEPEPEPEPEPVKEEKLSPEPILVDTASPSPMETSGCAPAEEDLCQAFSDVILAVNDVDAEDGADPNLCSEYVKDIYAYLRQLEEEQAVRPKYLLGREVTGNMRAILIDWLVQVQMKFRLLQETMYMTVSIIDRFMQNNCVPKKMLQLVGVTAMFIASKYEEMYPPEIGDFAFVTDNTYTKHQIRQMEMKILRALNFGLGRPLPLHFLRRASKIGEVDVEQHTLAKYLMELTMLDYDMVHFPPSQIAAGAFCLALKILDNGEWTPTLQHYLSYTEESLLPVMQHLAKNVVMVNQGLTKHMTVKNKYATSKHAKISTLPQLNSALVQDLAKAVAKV
Chain of CDK4/CCND3 (P11802 whole entry): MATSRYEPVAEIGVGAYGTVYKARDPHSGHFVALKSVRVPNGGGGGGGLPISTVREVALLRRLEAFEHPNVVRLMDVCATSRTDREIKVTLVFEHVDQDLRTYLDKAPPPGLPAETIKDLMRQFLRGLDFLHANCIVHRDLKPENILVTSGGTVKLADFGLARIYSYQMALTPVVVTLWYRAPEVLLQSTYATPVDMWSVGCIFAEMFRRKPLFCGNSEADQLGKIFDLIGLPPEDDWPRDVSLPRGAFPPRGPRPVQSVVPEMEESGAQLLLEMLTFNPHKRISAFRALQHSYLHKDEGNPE
Chain of CDK4/CCND3 (P30281 whole entry partner): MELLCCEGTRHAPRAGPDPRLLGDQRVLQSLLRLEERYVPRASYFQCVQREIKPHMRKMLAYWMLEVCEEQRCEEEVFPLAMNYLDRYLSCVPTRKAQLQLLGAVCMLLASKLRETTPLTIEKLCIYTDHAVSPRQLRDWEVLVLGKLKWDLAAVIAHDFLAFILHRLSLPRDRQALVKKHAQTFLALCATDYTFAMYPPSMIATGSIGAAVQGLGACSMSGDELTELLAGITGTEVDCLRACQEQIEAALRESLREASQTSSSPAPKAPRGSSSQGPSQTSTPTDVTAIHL

For the molecule `CC(C)NS(=O)(=O)c1ccc(Nc2cc3c(C#Cc4cccnc4N)nccc3cn2)cc1` [Example 421, 4-((5-((2-aminopyridin-3-yl)ethynyl)-2,6-naphthyridin-3-yl)amino)-N-isopropylbenzenesulfonamide], the IC50 on CDK2/CCNE1 (setting [1]) is less than 25 nM; at CDK1/CCNB1 (setting [2]) it was more than 250 nM; at CDK4/CCND3 (setting [3]), more than 250 nM; at CDK6/CCND1 (setting [4]), more than 250 nM.

Regarding `CC1(C)C(=O)Nc2cc(C#Cc3nccc4cnc(Nc5ccc(S(C)(=O)=O)cc5)cc34)cnc21` [Example 436, 3,3-dimethyl-6-((7-((4-(methylsulfonyl)phenyl)amino)-2,6-naphthyridin-1-yl)ethynyl)-1,3-dihydro-2H-pyrrolo[3,2-b]pyridin-2-one], the IC50 is less than 25 nM on CDK2/CCNE1 (setting [1]), more than 250 nM on CDK1/CCNB1 (setting [2]), more than 250 nM at CDK4/CCND3 (setting [3]) and more than 250 nM at CDK6/CCND1 (setting [4]).

On to `CN1CCC(NS(=O)(=O)c2ccc(Nc3cc4c(C#Cc5ccc6c(c5)NC(=O)C6(C)C)nccc4cn3)cc2)CC1` [Example 441, 4-((5-((3,3-dimethyl-2-oxoindolin-6-yl)ethynyl)-2,6-naphthyridin-3-yl)amino)-N-(1-methylpiperidin-4-yl)benzenesulfonamide], for which the IC50 on CDK2/CCNE1 (setting [1]) was less than 25 nM; at CDK1/CCNB1 (x = IC50 <25 nM, read-out: CDK1/CCNB IC50 (<25 nM)), less than 25 nM; at CDK4/CCND3 (x = IC50 <25 nM, read-out: CDK4/CCND IC50 (<25 nM)), less than 25 nM; on CDK6/CCND1 (setting [5]) it was 25 to 250 nM.

Take `CC1(C)C(=O)Nc2cc(C#Cc3nccc4cnc(Nc5ccc(S(C)(=O)=O)cc5)cc34)c(F)cc21` [Example 446, 5-fluoro-3,3-dimethyl-6-((7-((4-(methylsulfonyl)phenyl)amino)-2,6-naphthyridin-1-yl)ethynyl)indolin-2-one]: the IC50 at CDK2/CCNE1 (setting [1]) was less than 25 nM; at CDK1/CCNB1 (setting [6]), 25 to 250 nM; at CDK4/CCND3 (setting [7]), 25 to 250 nM; on CDK6/CCND1 (setting [4]) it was more than 250 nM.

Turning to `CNS(=O)(=O)c1ccc(Nc2cc3c(C#Cc4cccnc4N)nccc3cn2)c(C)c1` [Example 449, 4-((5-((2-aminopyridin-3-yl)ethynyl)-2,6-naphthyridin-3-yl)amino)-N,3-dimethylbenzenesulfonamide], the IC50 at CDK2/CCNE1 (setting [1]) is less than 25 nM; at CDK1/CCNB1 (setting [6]) it was 25 to 250 nM; on CDK4/CCND3 (setting [3]) it was more than 250 nM; at CDK6/CCND1 (setting [4]), more than 250 nM.

Consider `Nc1ncccc1C#Cc1nccc2cnc(Nc3ccc(S(=O)(=O)Nc4nccc(N5CCOCC5)n4)cc3)cc12` [Example 464, 4-((5-((2-aminopyridin-3-yl)ethynyl)-2,6-naphthyridin-3-yl)amino)-N-(4-morpholinopyrimidin-2-yl)benzenesulfonamide], for which the IC50 on CDK2/CCNE1 (setting [1]) is less than 25 nM; at CDK1/CCNB1 (setting [2]) it was more than 250 nM; on CDK4/CCND3 (setting [3]), more than 250 nM; at CDK6/CCND1 (setting [4]), more than 250 nM.

As to `Nc1ncccc1C#Cc1nccc2cnc(Nc3cnc(O)c(N4CCNCC4)c3)cc12` [Example 465, 5-((5-((2-aminopyridin-3-yl)ethynyl)-2,6-naphthyridin-3-yl)amino)-3-(piperazin-1-yl)pyridin-2-ol], the IC50 is 25 to 250 nM at CDK2/CCNE1 (setting [8]), more than 250 nM on CDK1/CCNB1 (setting [2]), more than 250 nM on CDK4/CCND3 (setting [3]) and more than 250 nM on CDK6/CCND1 (setting [4]).

As to `Cc1cc(C)nc(NS(=O)(=O)c2ccc(Nc3cc4c(C#Cc5cccnc5N)nccc4cn3)cc2)n1` [Example 471, 4-((5-((2-aminopyridin-3-yl)ethynyl)-2,6-naphthyridin-3-yl)amino)-N-(4,6-dimethylpyrimidin-2-yl)benzenesulfonamide], the IC50 at CDK2/CCNE1 (setting [1]) is less than 25 nM; on CDK1/CCNB1 (setting [6]) it was 25 to 250 nM; on CDK4/CCND3 (setting [3]) it was more than 250 nM; at CDK6/CCND1 (setting [4]), more than 250 nM.

For `Cc1c(C#Cc2nccc3cnc(Nc4ccc(S(C)(=O)=O)cc4)cc23)ccc2oc(=O)[nH]c12` [Example 472, 4-Methyl-5-((7-((4-(methylsulfonyl)phenyl)amino)-2,6-naphthyridin-1-yl)ethynyl)benzo[d]oxazol-2(3H)-one], the IC50 on CDK2/CCNE1 (setting [1]) was less than 25 nM; on CDK1/CCNB1 (setting [2]), more than 250 nM; on CDK4/CCND3 (setting [3]), more than 250 nM; on CDK6/CCND1 (setting [4]), more than 250 nM.

Consider `Nc1ncccc1C#Cc1nccc2cnc(Nc3ccc(S(N)(=O)=O)cc3)cc12` [Example 475, 4-((5-((2-aminopyridin-3-yl)ethynyl)-2,6-naphthyridin-3-yl)amino)benzenesulfonamide], for which the IC50 at CDK2/CCNE1 (setting [1]) was less than 25 nM; at CDK1/CCNB1 (setting [6]) it was 25 to 250 nM; on CDK4/CCND3 (setting [3]), more than 250 nM; at CDK6/CCND1 (setting [4]), more than 250 nM.

For `CS(=O)(=O)c1ccc(Nc2cc3c(C#Cc4ccc5[nH]c(=O)oc5c4)nccc3cn2)cc1` [Example 476, 6-((7-((4-(methylsulfonyl)phenyl)amino)-2,6-naphthyridin-1-yl)ethynyl)benzo[d]oxazol-2(3H)-one], the IC50 at CDK2/CCNE1 (setting [8]) was 25 to 250 nM; on CDK1/CCNB1 (setting [2]), more than 250 nM; on CDK4/CCND3 (setting [3]), more than 250 nM; at CDK6/CCND1 (setting [4]), more than 250 nM.

In the case of `Cc1c(-c2nccc3cnc(Nc4ccc(S(C)(=N)=O)cc4)cc23)ccc2c1cnn2CC(O)(C(F)(F)F)C(F)(F)F` (stereo not shown) [Example 482, Imino(methyl)(4-((5-(4-methyl-1-(3,3,3-trifluoro-2-hydroxy-2-(trifluoromethyl)propyl)-1H-indazol-5-yl)-2,6-naphthyridin-3-yl)amino)phenyl)-λ^6-sulfanone], the IC50 was less than 25 nM at CDK2/CCNE1 (setting [1]), more than 250 nM at CDK1/CCNB1 (setting [2]), 25 to 250 nM at CDK4/CCND3 (setting [7]) and 25 to 250 nM at CDK6/CCND1 (setting [5]).

For `CS(=O)(=O)c1ccc(Nc2cc3c(C#Cc4ccc(NC(=O)C5CC5)cc4)nccc3cn2)cc1` [Example 487, N-(4-((7-((4-(methylsulfonyl)phenyl)amino)-2,6-naphthyridin-1-yl)ethynyl)phenyl)cyclopropanecarboxamide], the IC50 on CDK2/CCNE1 (setting [8]) is 25 to 250 nM; on CDK1/CCNB1 (setting [2]), more than 250 nM; at CDK4/CCND3 (setting [3]), more than 250 nM; on CDK6/CCND1 (setting [4]) it was more than 250 nM.

As for `C[C@@H](C#Cc1nccc2cnc(Nc3ccc(S(C)(=O)=O)cc3)cc12)CO` [Example 488, (S)-2-methyl-4-(7-((4-(methylsulfonyl)phenyl)amino)-2,6-naphthyridin-1-yl)but-3-yn-1-ol], the IC50 at CDK2/CCNE1 (setting [1]) is less than 25 nM; on CDK1/CCNB1 (setting [2]), more than 250 nM; at CDK4/CCND3 (setting [7]), 25 to 250 nM; at CDK6/CCND1 (setting [5]) it was 25 to 250 nM.

`CS(=N)(=O)c1ccc(Nc2cc3c(C#Cc4cccnc4N)nccc3cn2)cc1` (stereo not shown) [Example 490, (4-((5-((2-aminopyridin-3-yl)ethynyl)-2,6-naphthyridin-3-yl)amino)phenyl)(imino)(methyl)-λ^6-sulfanone]: the IC50 is 25 to 250 nM on CDK2/CCNE1 (setting [8]), more than 250 nM on CDK1/CCNB1 (setting [2]), more than 250 nM at CDK4/CCND3 (setting [3]) and more than 250 nM on CDK6/CCND1 (setting [4]).

As to `COC(=O)CCc1ccc(C#Cc2nccc3cnc(Nc4ccc(S(C)(=O)=O)cc4)cc23)cc1` [Example 493, methyl 3-(4-((7-((4-(methylsulfonyl)phenyl)amino)-2,6-naphthyridin-1-yl)ethynyl)phenyl)propanoate], the IC50 at CDK2/CCNE1 (setting [8]) was 25 to 250 nM; at CDK1/CCNB1 (setting [2]), more than 250 nM; at CDK4/CCND3 (setting [3]), more than 250 nM; on CDK6/CCND1 (setting [4]), more than 250 nM.

Take `CS(=O)(=O)c1ccc(Nc2cc3c(C#Cc4ccc(CCC(=O)O)cc4)nccc3cn2)cc1` [Example 494, 3-(4-((7-((4-(methylsulfonyl)phenyl)amino)-2,6-naphthyridin-1-yl)ethynyl)phenyl)propanoic acid]: the IC50 at CDK2/CCNE1 (setting [1]) is less than 25 nM; on CDK1/CCNB1 (setting [2]), more than 250 nM; on CDK4/CCND3 (setting [3]) it was more than 250 nM; on CDK6/CCND1 (setting [4]), more than 250 nM.

Consider `CS(=O)(=O)c1ccc(Nc2cc3c(C#Cc4n[nH]c(=O)c5ccccc45)nccc3cn2)cc1` [Example 495, 4-((7-((4-(methylsulfonyl)phenyl)amino)-2,6-naphthyridin-1-yl)ethynyl) phthalazin-1(2H)-one], for which the IC50 on CDK2/CCNE1 (setting [8]) was 25 to 250 nM; on CDK1/CCNB1 (setting [2]), more than 250 nM; at CDK4/CCND3 (setting [3]) it was more than 250 nM; on CDK6/CCND1 (setting [4]) it was more than 250 nM.

Consider `CS(=O)(=O)c1ccc(Nc2cc3c(C#Cc4n[nH]c5cnccc45)nccc3cn2)cc1` [Example 496, 5-((1H-pyrazolo[3,4-c]pyridin-3-yl)ethynyl)-N-(4-(methylsulfonyl)phenyl)-2,6-naphthyridin-3-amine], for which the IC50 was less than 25 nM on CDK2/CCNE1 (setting [1]), more than 250 nM at CDK1/CCNB1 (setting [2]), more than 250 nM at CDK4/CCND3 (setting [3]) and more than 250 nM on CDK6/CCND1 (setting [4]).
